Measurements published in patent publication US20230159931A1, “TARGETING THE PALMOTYLATION/DEPALMOTYLATION CYCLE TO TREAT INFLAMMATORY DISEASES” (CORNELL UNIVERSITY, priority 2020, published 2023).

Key:
APT2 = biological target: T1, APT2 (Homo sapiens, UniProt O95372); assay: STAT3 palmitoylation by Alk14 labelling and in-gel fluorescence after APT2 inhibition or knockdown; format: cell-based; details: DHHC7-knockout HEK293T cells reintroduced with HA-DHHC7 and Flag-STAT3; LYPLA2 siRNA or 20 μM of ML349 for 36 h
T1 construct: treated with LYPLA2 siRNA or 20 μM of ML349 for 36 h before Alk14 labelling; endogenous in cells; host or cells: DHHC7-knockout HEK293T cells re-expressing HA-DHHC7 and Flag-STAT3
Description: FIGS. 2A-2H. APT2 is a depalmitoylase of STAT3 and palmitoylation/depalmitoylation promotes p-STAT3 nuclear localization. (A) C108 is the major palmitoylation site of STAT3. HEK293T cells were transfected with HA-DHHC7 and Flag-STAT3 (wild-type or mutants) and labelled with Alk14. STAT3 was pulled down and subjected to Alk14 labelling and western blot analyses. (B) Left, distribution of wild-type or C108S mutants of STAT3 and p-STAT3 in the subcellular fractions of DHHC7-knockout HEK293T cells into which DHHC7 or DHHS7 were reintroduced. Right, quantification of the relative p-STAT3 levels. (C) The subcellular localization of STAT3 and p-STAT3 was analysed using confocal imaging after different EGFP-STAT3 constructs and HA-tagged DHHC7 were transfected into DHHC7-knockout HEK293T cells. […] (D) In HEK293T cells, overexpression of wild-type APT2—but not the C2S or S122A mutants—decreased the palmitoylation level of Flag-STAT3 as determined by Alk14 labelling. […] The palmitoylation of STAT3 was determined by in-gel fluorescence (left) and quantified (right). […] DHHC7-knockout HEK293T cells were reintroduced with HA-DHHC7 and Flag-STAT3, and treated with LYPLA2 siRNA or 20 μM of ML349 for 36 h before Alk14 labelling and in-gel fluorescence detection. […] Right, quantification of the relative STAT3 and p-STAT3 levels in these fractions. […] Right, quantification of the relative STAT3 levels in these fractions. […]

[1] = tested on: STAT3 target genes (RORC and CCND1); assay: Expression of STAT3 target genes under TH17 differentiation conditions (qPCR); format: cell-based; details: mouse spleen cells
Protocol: Splenocytes were isolated from mice by classic methods. In brief, the excised spleen was sliced into small pieces and placed onto a strainer (352350, Thermo Fisher) attached to a 50 ml conical tube. The sliced spleen was pressed through the strainer using the plunger end of a syringe and the cells were washed through the strainer with excess 4° C. PBS. The cell suspension was centrifuged at 500 g for 5 min at 4° C. The cell pellet was suspended in 2 ml of red blood cell lysing buffer (R7757, Sigma) for 5 min at RT and diluted with 30 ml PBS. The cells were centrifuged at 500 g for 5 min at RT. The cell pellet was suspended in 20 ml of 37° C. DMEM media, mixed well with 10 ml of Percoll density gradient media (17089102, VWR) and centrifuged at 2,500 g for 5 min at RT. The collected cells were seeded in 37° C. RPMI 1640 medium (12633012, Gibco) supplemented with 10% FBS at 5×10^6 cells per ml. Splenocytes were cultured under TH17-polarizing conditions: 3 ng ml^−1 TGF-β (100-21, PeproTech), 40 ng ml^−1 IL-6 (200-06, PeproTech), 30 ng ml^−1 IL-23 (200-23, PeproTech), 20 ng ml^−1 tumour necrosis factor (TNF) (300-01A, PeproTech) and 10 ng ml^−1 IL-1β (200-01B, PeproTech). […]
Because STAT3 is important for TH17 cell differentiation, the inventors evaluated whether the palmitoylation-depalmitoylation cycle of STAT3 promotes the generation of TH17 cells from mouse spleen cells. […]

T1 sequence (O95372 whole entry): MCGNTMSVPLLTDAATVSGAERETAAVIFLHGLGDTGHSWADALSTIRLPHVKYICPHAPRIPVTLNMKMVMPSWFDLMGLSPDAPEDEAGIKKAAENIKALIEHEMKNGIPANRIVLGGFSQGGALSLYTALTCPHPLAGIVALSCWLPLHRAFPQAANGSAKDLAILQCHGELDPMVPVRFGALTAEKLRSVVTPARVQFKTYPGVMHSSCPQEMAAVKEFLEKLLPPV

Question: With `COc1ccc(N2CCN(C(=O)c3cc4c(s3)-c3ccccc3S(=O)(=O)C4)CC2)cc1` [ML349] as the compound, how does the STAT3 palmitoylation (APT2) read?
Answer: increased STAT3 palmitoylation

Question: What about the “expression of STAT3 target genes (RORC and CCND1)” value [1] of the same compound?
Answer: significantly decreased
